We go through 2 compounds from ChEMBL document CHEMBL5053549, “Discovery of Potent and Novel Dual PARP/BRD4 Inhibitors for Efficient Treatment of Pancreatic Cancer” (J Med Chem, 2021).

The source made the active and inactive calls. The rule behind the calls is not given here.

Series [1] deals with SW1990. The series can be described thus: Induction of autophagy in human SW1990 cells xenografted in BALB/c mouse assessed as increase in LC3B expression at 45 mg/kg, ip after 4 days by Q-PCR analysis. The note with it: time 4.0 day. Type of series: functional, organism-based. (In xenograft studies the graft and the host belong to different species.)
The test system of series [2] is Mus musculus. In words: Toxicity in BALB/c mouse xenografted with human SW1990 cells assessed as kidney damage at 45 mg/kg, ip administered for 28 consecutive days by H and E staining based […] microscopic analysis. Conditions: in vivo, 672 h, time 28 day. It counts as organism-based.
For series [3], the target named is T1, Bromodomain-containing protein 4 (Homo sapiens, UniProt O60885). The series can be described thus: Inhibition of recombinant BRD4 BD2 (unknown origin) incubated for 120 mins by TR-FRET assay. In general terms: TR-FRET usually uses a lanthanide donor and a delayed reading to cut background.
Series [4] concerns the target T1, Bromodomain-containing protein 4. In words: Inhibition of recombinant BRD4 (unknown origin) at 1 uM incubated for 120 mins by TR-FRET assay relative to control.
For series [5], the system named is Mus musculus. The series can be described thus: Inhibition of homologous recombinant repair in human SW1990 cells xenografted in BALB/c mouse assessed as increase in gammaH2AX expression at 45 mg/kg, ip after 4 days by immunohistochemical analysis. Type of series: functional, organism-based. Conditions: time 4.0 day.
For series [6], the system named is Mus musculus. The series can be described thus: Effect on cell cycle progression in human SW1990 cells xenografted in BALB/c mouse assessed as reduction in E2F2 expression at 45 mg/kg, ip after 4 days by Q-PCR analysis. Conditions: time 4.0 day. It counts as functional, organism-based.
In series [7] the target is T2, Poly [ADP-ribose] polymerase 1 (Homo sapiens, UniProt P09874). The series can be described thus: Inhibition of PARP1 expression in human SW1990 cells at 1 uM after 4 days by Western blot analysis. It counts as cell-based. Conditions: time 4.0 day.
The target in series [8] is T2, Poly [ADP-ribose] polymerase 1. The series can be described thus: Inhibition of PARP1 expression in human SW1990 cells at 1 uM after 4 days by Q-PCR analysis. It counts as cell-based. The note with it: time 4.0 day.
The subject of series [9] is SW1990. In words: Induction of cell cycle arrest in human SW1990 cells assessed as accumulation of cells at G2/M phase at 2 uM incubated for 4 days by propidium iodide staining based flow cytometry (reference value: 5.89%). It counts as functional. Conditions: time 4 day.
In series [10] the test system is SW1990. In words: Effect on cell cycle progression in human SW1990 cells assessed as reduction in Olaparib-induced CDK6 expression at 1 uM after 4 days in presence of Olaparib by Q-PCR analysis. Type of series: functional, cell-based. Conditions: time 4.0 day.
For series [11], the system named is SW1990. In words: Induction of DNA damage in human SW1990 cells assessed as tail DNA at 4 uM incubated for 4 days by comet assay. The note with it: time 4.0 day. Type of series: functional, cell-based.

T2 sequence (P09874 whole entry): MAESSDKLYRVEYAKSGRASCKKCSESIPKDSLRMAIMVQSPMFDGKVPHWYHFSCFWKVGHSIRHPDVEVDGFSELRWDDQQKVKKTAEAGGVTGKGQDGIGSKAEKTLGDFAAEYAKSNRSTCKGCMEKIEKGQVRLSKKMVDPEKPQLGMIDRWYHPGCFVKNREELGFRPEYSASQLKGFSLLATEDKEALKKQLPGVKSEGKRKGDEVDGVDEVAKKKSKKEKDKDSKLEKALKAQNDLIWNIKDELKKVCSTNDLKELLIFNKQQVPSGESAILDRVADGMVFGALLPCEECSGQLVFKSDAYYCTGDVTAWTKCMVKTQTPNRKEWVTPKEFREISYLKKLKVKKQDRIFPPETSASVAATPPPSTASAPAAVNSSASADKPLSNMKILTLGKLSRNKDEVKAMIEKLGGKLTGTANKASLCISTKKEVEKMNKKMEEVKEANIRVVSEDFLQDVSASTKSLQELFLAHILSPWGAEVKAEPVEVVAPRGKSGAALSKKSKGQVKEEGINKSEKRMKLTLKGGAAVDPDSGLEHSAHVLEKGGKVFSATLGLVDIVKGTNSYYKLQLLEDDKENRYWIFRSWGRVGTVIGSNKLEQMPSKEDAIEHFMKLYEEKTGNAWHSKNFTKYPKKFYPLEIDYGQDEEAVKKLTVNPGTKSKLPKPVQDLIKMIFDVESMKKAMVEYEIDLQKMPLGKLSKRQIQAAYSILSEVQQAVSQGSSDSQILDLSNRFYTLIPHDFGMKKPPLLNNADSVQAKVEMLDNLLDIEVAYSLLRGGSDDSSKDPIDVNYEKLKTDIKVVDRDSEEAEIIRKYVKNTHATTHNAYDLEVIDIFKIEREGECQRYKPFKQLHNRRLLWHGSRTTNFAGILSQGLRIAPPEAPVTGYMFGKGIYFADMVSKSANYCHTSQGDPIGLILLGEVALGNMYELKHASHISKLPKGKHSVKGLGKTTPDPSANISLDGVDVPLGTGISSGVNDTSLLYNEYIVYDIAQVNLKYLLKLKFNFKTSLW

The term IC50 denotes the concentration at which inhibition is half-maximal. The inhibition is the change of the read-out against control, counted positive when it falls. Regarding `CC[C@@H]1C(=O)N(C)c2cnc(N(C)c3ccc(-c4nc5c(C(N)=O)cccc5[nH]4)cc3OC)nc2N1C1CCCC1`, the result in [1] and in series [6] was Active. In addition, the Activity entry in series [2] is on record as “Non-Toxic”; in [9] it was 13.22%. Besides, the 50% inhibitory concentration (IC50) in series [3] turned out to be 157 nM. The inhibition in series [4] stood at 76.2%. The inhibition result in series [5], in series [7] and in series [8] was “Active” each time.

Take `Cc1sc2c(c1C)C(c1ccc(Cl)cc1)=N[C@@H](CC(=O)OC(C)(C)C)c1nnc(C)n1-2`: the result in series [10] and in [11] was Active.
